Reference: patent publication US7799907B2, “Method for the preparation of 2′-deoxy-2′,2′-difluorocytidine” (Hanmi Pharm. Co., Ltd, priority 2004, dated 2010)

Assay: Stability of moisture content of the hemihydrate and dihydrate forms on storage
Assay type: physicochemical
Conditions: for stability for the moisture content changes: under the conditions shown in Table 1
[1] = 40° C. under 75% relative humidity, 1 day
[2] = 40° C. under 75% relative humidity, 7 days
[3] = 40° C. under 75% relative humidity, 14 days

Compound	Moisture content (%) [1]	Moisture content (%) [2]	Moisture content (%) [3]	Moisture content (%) (Air, 1 day)	Moisture content (%) (Air, 7 days)	Moisture content (%) (Air, 14 days)	stability for the moisture content changes
2′-Deoxy-2′,2′-difluorocytidine hemihydrate	3.7%	3.8%	3.8%	3.6%	3.7%	3.4%	stable
Nc1ccn([C@@H]2O[C@H](CO)[C@@H](O)C2(F)F)c(=O)n1.O.O [Dihydrate, 2′-Deoxy-2′,2′-difluorocytidine dihydrate]	12.1%	11.9%	11.7%	11.6%	11.8%	11.7%	stable
